Source: patent publication US20170211073A1, “ANTISENSE ANTINEOPLASTIC AGENT” (priority 2014, published 2017)

Columns and labels:
[1] = test system: human large intestine cancer cells HCT116; assay: Antitumor effect of YB-1 ASO AmNA into blood, HCT116 subcutaneous tumor; assay type: in vivo, nude mice
Protocol: (§1) Antitumor effect of administration into blood of YB-1 ASO of AmNA type, of which high safety was confirmed in Example 9 compared with ASO constituted with the conventional BNA, was examined. The human large intestine cancer cells HCT116 were subcutaneously transplanted to the thighs of nude mice. After subcutaneous tumors having a diameter of 6 to 7 mm (average tumor volume, 78 vs. 72 mm^3) were formed, 200 μg/200 μL of YB-1 ASO AmNA was administered (once every two weeks, total 2 times) into the blood from the caudal veins. The diameters of the tumors were measured over time, and tumor volumes calculated in accordance with a calculation formula, (Major axis)×(Minor axis)/2, were compared with those obtained with the control antisense group. The subcutaneous tumors were collected after one week from the second administration (day 28), and weights thereof were compared. In the YB-1 ASO AmNA group, both the tumor diameter and tumor weight were suppressed to about ⅕ of those observed with the control antisense group (FIG. 10, *P<0.05).

[2] = test system: gemcitabine-resistant human pancreatic cancer SUIT2 cells; assay: Antitumor effect of YB-1 ASO AmNA into blood, gemcitabine-resistant SUIT2 subcutaneous tumor; assay type: in vivo, nude mice
Protocol: as §1
A human pancreatic cancer SUIT2 cell strain was prepared by culturing pancreatic cancer cells resistant to the anticancer agent, gemcitabine, for a long period of time in a medium containing gemcitabine at a low concentration (IC50 value, 100 nM for the resistant strain vs. 5 nM for the parent strain). […]

[3] = test system: large intestine cancer HCT116 cells; assay: Repetitive administration into blood, HCT116 subcutaneous tumor growth; assay type: in vivo, nude mice; conditions: 10 mg/kg BW caudal vein once a week over three weeks, days 14 and 21
Protocol: The tumor diameters were measured over time.

[4] = test system: pancreatic cancer cell strain SUIT2; assay: Apoptosis induction in SUIT2 by FACS and Western blotting (PARPp85, caspase-3); assay type: cell-based; conditions: 20 nM, in vitro
Protocol: In the same manner as that of Example 3, 20 nM of #10AmNA YB-1 antisense was introduced into the cells of the pancreatic cancer cell strain SUIT2 in vitro.

CD31 = assay: Microvessel density by CD31 immunostaining in SUIT2-GR subcutaneous tumor; assay type: in vivo, nude mice; conditions: administration into the blood
Source text: The neovascularity marker CD31 in the SUIT2-GR subcutaneous tumor of the treatment experiment (A) was immunostained. As a result, it was observed that the microvessel density was decreased by the administration of #10 AmNA YB-1 antisense into the blood, and thus inhibition of neovascularization was induced (FIG. 14C).

Lewis lung cancer = Lewis lung cancer subcutaneous tumor model; assay type: in vivo; conditions: 10 mg/kg BW caudal vein once a week for three weeks; days 14 and 21; vs control antisense group
Protocol: Subcutaneous tumor models of lung cancer, Lewis lung cancer, were created. […] The tumor diameters were measured over time.

YB-1 [5] = assay: YB-1 expression in H226 by real-time RT-PCR; assay type: cell-based; conditions: Lipofectamine RNAiMax
Source text: The #10 AmNA YB-1 antisense was introduced into cells of the malignant mesothelioma cell strain H226 using the reagent Lipofectamine RNAiMax, and expression of YB-1 was examined by real-time RT-PCR.

[6] = test system: malignant mesothelioma cell strain H226; assay: H226 subcutaneous tumor model; assay type: in vivo; conditions: 10 mg/kg BW caudal vein once a week for two weeks, vs control group
Protocol: Subcutaneous tumor models of the malignant mesothelioma cell strain H226 were prepared. […] A photograph of the subcutaneous tumor after the treatment is shown in the left panel.

YB-1 [7] = assay: YB-1 expression in SKOV3 by real-time RT-PCR; assay type: cell-based; conditions: Lipofectamine RNAiMax
Source text: The #10 AmNA YB-1 antisense was introduced into cells of the ovarian cancer cell strain SKOV3 using the reagent Lipofectamine RNAiMax, and expression of YB-1 was examined by real-time RT-PCR.

[8] = test system: ovarian cancer cell strain SKOV3; assay: Proliferation of SKOV3 cells; assay type: cell-based
[9] = test system: ovarian cancer cell strain SKOV3; assay: SKOV3-luciferase peritoneum inoculation model; assay type: in vivo; conditions: 10 mg/kg BW intraperitoneally once a week for two weeks, vs control group
Protocol: Peritoneum inoculation models of ovarian cancer cell strain SKOV3 stably expressing luciferase were prepared. Then, after 1 week from the transplantation of the cancer cells, 10 mg/kg BW of #10 AmNA YB-1 antisense was intraperitoneally administered once a week for two weeks, and the tumor volume was evaluated over time in terms of the luciferase activity.

[10] = test system: gastric cancer cell strain AS44; assay: Proliferation of AS44 cells; assay type: cell-based
[11] = test system: ovarian cancer cell strain SKOV-3; assay: Anticancer agent sensitivity enhancement, SKOV-3; assay type: cell-based; conditions: antisense 5 nM, 5-FU, gemcitabine
Protocol: The #10 AmNA YB-1 antisense (5 nM) was introduced into cells of the pancreatic cancer cell strain MIA PaCa-2 (FIG. 19A) and ovarian cancer cell strain SKOV-3 (FIG. 19B) using the reagent Lipofectamine RNAiMax, and cell-killing effects of the anticancer agent observed in the presence and absence of the antisense were compared. […] The anticancer agent concentrations that provided equivalent cell-killing effects are shown in blue color (5-FU) or red color (gemcitabine).

[12] = test system: pancreatic cancer cell strain SUIT-2; assay: Radiation sensitivity enhancement, SUIT-2; assay type: cell-based; conditions: antisense 10 nM
Protocol: The #10 AmNA YB-1 antisense (10 nM) was introduced into cells of the pancreatic cancer cell strain SUIT-2 using the reagent Lipofectamine RNAiMax, and cell-killing effects of X-ray irradiation observed in the presence and absence of the antisense were compared.

YB-1 [13] = assay: YB-1 knockdown siRNA vs AmNA-AON, mRNA level (real-time RT-PCR); assay type: cell-based; conditions: AsPC-1, MIA PaCa-2, Suit-2; 20 nM; 48 hours
Protocol: (§2) YB-1-siRNA or YB-1 #10AmNA was introduced (final concentration, 20 nM) into cells of the pancreatic cancer cell strains (AsPC-1, MIA PaCa-2, and Suit-2). After 48 hours, RNAs and proteins were extracted, and the YB-1 expression was evaluated by real-time RT-PCR and Western blotting at the mRNA level (A) and protein level (B), respectively. Both the knockdown efficiencies obtained with siRNA and #10 AmNA-AON were high at the mRNA level, and any clear difference was not observed between them. […] The graphs show mean±SD (n=3, *P<0.05).

YB-1 [14] = assay: YB-1 knockdown siRNA vs AmNA-AON, protein level (Western blotting); assay type: cell-based; conditions: AsPC-1, MIA PaCa-2, Suit-2, 20 nM, 48 hours
Protocol: as §2

[15] = General blood and biochemical examinations, mice with Suit2-GR sc tumor; conditions: SUIT2-GR and HCT116 models; 10 mg/kg BW once a week over three weeks
Protocol: Subcutaneous tumor models were created by subcutaneously transplanting gemcitabine-resistant pancreatic cancer SUIT2-GR cells and large intestine cancer HCT116 cells to the thighs of nude mice. After tumors having a volume of 50 mm^3 were formed, 10 mg/kg BW of #10AmNA YB-1 antisense was administered from the caudal veins once a week over three weeks. The tumor diameters were measured over time.

TCTcctgcaccCTGg (TCTCCTGCACCCTGG; chemistry not fully specified) [#10AmNA]
tumor diameter as fraction of control antisense group ([1]; 200 μg/200 μL caudal vein, once every two weeks, total 2 times): about ⅕ | tumor weight as fraction of control antisense group ([1]; day 28): about ⅕ | tumor weight as fraction of control antisense group [2]: about ⅓ | tumor diameter as fraction of control antisense group ([2]; 200 μg/200 μL into blood, once every two weeks, total 2 times): about ⅓ | subcutaneous tumor-suppressing effect [3]: significant subcutaneous tumor-suppressing effect | induction of apoptosis (FACS; PARPp85, caspase-3) [4]: Induction of apoptosis was observed | microvessel density (CD31) (CD31): decreased | increase of the tumor (Lewis lung cancer): significantly suppressed | suppression of YB-1 expression (YB-1 [5]): Concentration-dependent suppression | increase of the tumor in terms of tumor weight [6]: significantly suppressed | suppression of YB-1 expression (YB-1 [7]): Concentration-dependent suppression | suppression of proliferation [8]: suppression of proliferation | tumor volume (luciferase activity) [9]: significantly suppressed | suppression of proliferation [10]: suppression of proliferation | cell-killing effects of the anticancer agent in presence of the antisense [11]: Enhancement of the cell-killing effect | cell-killing effects of X-ray irradiation in presence of the antisense [12]: Enhancement of the cell-killing effect | knockdown efficiency at the mRNA level (YB-1 [13]): high | knockdown efficiency at the protein level (YB-1 [14]): clearly higher | safety with the every week administration protocol [15]: any problem was not observed
